This is an account of results in patent publication US8598383B2, “Pharmaceutical composition for treating or preventing degenerative and inflammatory diseases” (Neurotech Pharmaceuticals Co., Ltd., priority 2006, dated 2013).

Molecules are shown by their SMILES.

Series [1] can be described thus: Single-dose toxicity test. In kind it is in vivo. The settings on record: mouse, in vivo; single dose. As to the method: FIG. 32 is results of single dose toxicity testing of some 2-hydroxybenzoic acid derivatives according to the present invention.
Single-dose toxicities of the 2-hydroxybenzoic acid derivatives were evaluated.

The subject of series [2] is AGS cell line (human gastric cancer cells). The series is described as follows: Cell-protecting effect in AGS cells (Helicobacter, sulindac, H2O2, ethanol; MTT). In kind it is cell-based. The settings on record: most cell death models. The method, then:
FIG. 3 is results showing cell-protecting effect of compound 2 on gastric mucous membrane damage induced by Helicobacter. Helicobacter (43504, 5×10^6 cfu/ml) was administered to cultured AGS (human gastric cancer) cell, alone or with sample having indicated concentration. MTT analysis method was used to evaluate the survival rate of gastric mucous membrane cell 24 hours after administration.
FIG. 4 is results showing cell-protecting effect of compound 2 on gastric mucous membrane damage induced by sulindac, a NSAID. 100 uM of sulindac was administered to cultured AGS cell, alone or with sample having indicated concentration. MTT analysis method was used to evaluate the survival rate of gastric mucous membrane cell 16 hours after administration.
FIG. 5 is results showing cell-protecting effect of compound 2 on gastric mucous membrane damage induced by H2O2, oxidative stress. Cultured AGS cell was treated with 100 uM of H2O2 for 8 hours, alone or with sample having indicated concentration, and was washed with culture medium. MTT analysis method was used to evaluate the survival rate of gastric mucous membrane cell 24 hours later. […]
Cell-protecting effect of the 2-hydroxybenzoic acid derivative of the present invention was evaluated. […] After than, the absorbance was analyzed by ELISA reader at 540 nm, and the survival rate of gastric mucous membranes cell was calculated.

The subject of another series is TNF-α mRNA in AGS cell. The series is described as follows: Expression of TNF-α mRNA in ethanol-treated AGS cells (RT-PCR). In kind it is cell-based, human. The settings on record: 1-100 uM, ethanol 24 hours. As to the method:
FIG. 7 is a picture showing the expression degree of TNF-α mRNA. Cultured AGS cell was treated with 25 mM of alcohol for 24 hours, alone or with compound 2 having indicated concentration. Then, mRNA was extracted and evaluated by RT-PCR method.
As one marker of inflammation, the expression level of TNF-α mRNA was evaluated by RT-PCR method. Samples treated with ethanol for 24 hours were used.

Series [3] relates to thermal hyperalgesia induced by carrageenan. The series is described as follows: Carrageenan-induced thermal hyperalgesia. In kind it is in vivo, rat. As to the method: FIG. 11 is results showing efficacy of compound 2 through thermal hyperalgesia induced by carrageenan, one of arthritis animal models. 2% carrageenan was intradermally injected into hindpaw of rat to induce thermal hyperalgesia.
Analgesic effect of compound 2, one example of the 2-hydroxybenzoic acid derivative, was evaluated in arthritis model. 2% carrageenan was intradermally injected into left pes of rat, and 3-300 mg/kg of compound 2 was orally administered to evaluate effect of compound 2 on thermal hyperalgesia of arthritis model.

Series [4] deals with collagen-induced arthritis. The series is described as follows: Collagen-induced arthritis model (arthritic index). It counts as in vivo, mouse. Conditions: 25 mg/kg/day intraperitoneal. As to the method:
FIG. 15 is results showing efficacy through arthritis animal model induced by collagen. 25 mg/kg of compound 2, 3 or 18, or methotrexate (control, MTX, 1 mg/kg/week) was intraperitoneally injected after administration of collagen.
FIG. 16 is results showing efficacy of compounds 6 and 11 through arthritis animal model induced by collagen. Collagen was intradermally injected two times with 2 week-interval. One week later, compound 6, compound 11 and methotrexate (control) were intraperitoneally injected. Then, the animals were observed everyday for 2-3 weeks, and results was evaluated by arthritis index.
To evaluate the efficacy of the 2-hydroxybenzoic acid derivative, collagen-induced arthritis model (rheumarthritis animal model) was used. Bovine type II collagen was mixed with complete Freund's adjuvant to make an emulsion, and the emulsion was intradermally injected into the origin site of 8˜10 week-old DBA/1LacJ mouse tail. Intradermal boosting was performed by the same method 2 weeks later. 25 mg/kg/day of compounds 2, 3 and 18, 1 mg/kg/week of methotrexate (comparative example) or 10% vehicle (control) were intraperitoneally injected one week after the second intradermal injection of collagen (FIG. 15). Pictures of foot edema of normal rat (sham), collagen-administered rat (collagen) and compound 18-administered rat (compound 18, 25 mg/kg/day injection) were shown in FIG. 14.
In addition, 50 mg/kg/day of compounds 6 and 11, and 5 mg/kg/2 days of methotrexate (comparative example) were intraperitoneally injected. Phosphate buffered saline was injected as control (FIG. 16). For 2˜3 weeks, the degree of arthritis was observed everyday, and the result was evaluated according to the below arthritic index using edema.
4 paws were evaluated as from 0 to 4 point, Total points: 16

For another series, the system named is TNF-α and IL-1β mRNA. Nature of the series: Cytokine mRNA expression in G93A mouse (RT-PCR). It counts as in vivo. Conditions: 5 mg/kg/day in chow, 16 week-old, lumbar segments. The method, then: FIG. 30 is results showing the levels of mRNA of inflammatory cytokines (TNF-α and IL-1β), markers of inflammation, in G93A mouse. RT-PCR (Reverse Transcription-Polymerase Chain Reaction) was used.
Lumbar segments of 16 week-old G93A mice fed with general chow only, and 16 week-old G93A mice fed with chow containing 5 mg/kg/day of compound 2 were extracted and their RNA were separated. The mRNA expression degrees of TNF-α and IL-1β, inflammatory cytokines, were evaluated through RT-PCT.

What is called LD50 is the dose at which mortality reaches 50%. A higher LD50 goes with lower toxicity. In the case of `O=C(O)c1cc(NCCc2ccc(C(F)(F)F)cc2)ccc1O` [compound 2, 2-hydroxy-5-[2-(4-trifluoromethyl-phenyl)-ethylamino]-benzoic acid], the 50% lethal dose (LD50) in series [1] was more than 3000 mg/kg. Further, the cell-protecting effect entry in series [2] (1 uM and 10 uM) is reported as “more than 50%”; in series [2] (100 uM) it was “more than 70%”. Also, the “expression of TNF-α mRNA” value in the series on TNF-α mRNA in AGS cell is on record as “completely suppressed”. The “thermal hyperalgesia, comparison with ibuprofen” value in series [3] (100 mg treatment) was “equivalent level of decreasing effect with 50 mg/kg of ibuprofen”. Moreover, the “reduction of thermal hyperalgesia” value in series [3] (300 mg/kg oral) is “over 90%”. Further, the thermal hyperalgesia result in series [3] (3-300 mg/kg oral) was “decreased thermal hyperalgesia in a dose-dependent manner”. The arthritic index entry in series [4] is “apparent reducing effect”. Moreover, the “mRNA expression of TNF-α and IL-1β” value in the series with TNF-α and IL-1β mRNA is “effectively reduced inflammatory cytokines”.
